Test results as given in PubChem BioAssay AID330 (DTP/NCI, 2004).
“And” between values parts separate entries of the source, which are not always exact repeats. Equal entries are not always repeated. Inconclusive results and toxic doses are left out. Numbered stars: 1 amine (or outer) side, 2 acyl side, 3 side chain; on linkers, the order of the positions; unused ones are H or OH. Bridge positions count the residues as written; N and C are the ends. Square brackets hold non-standard residues; d marks the D form. Peptide text beside a SMILES is read from it. * marks the point of attachment. X2 = CC(C)C(C)C(C(=O)[*:2])N(C)[*:1]; Picolinoyl(3-OH) = O=C(c1ncccc1O)*; NMePhg = CN[CH](C(=O)O)c1ccccc1; Hyp = O=C(O)[CH]1C[CH](O)CN1; Sar = CNCC(=O)O

Test system: P388 leukemia ip, CD2F1 mice, survival T/C
Experiment: NCI In Vivo Anticancer Drug Screen. Data for tumor model P388 Leukemia (intraperitoneal) in CD2F1 (CDF1) mice
Settings: endpoint: median survival time, higher = longer survival
Outline: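 Mice carrying the transplanted tumor received test compound or vehicle. Survival was recorded in each group, and the value is the treated-group measurement divided by that of the vehicle-treated control group.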

[1] = dose: 25.0 mg/kg/injection, schedule: Q01DX009 (ip), vehicle: saline with Tween-80
[2] = dose: 50.0 mg/kg/injection, schedule: Q01DX009 (ip), vehicle: saline with Tween-80
[3] = dose: 50.0 mg/kg/injection, schedule: Q01DX005 (ip), vehicle: saline with Tween-80
[4] = dose: 100.0 mg/kg/injection, schedule: Q01DX009 (ip), vehicle: saline with Tween-80
[5] = dose: 200.0 mg/kg/injection, schedule: Q01DX009 (ip), vehicle: saline with Tween-80
[6] = dose: 50.0 mg/kg/injection, schedule: Q01DX009 (ip), vehicle: Klucel (hydroxypropylcellulose) (HPC)
[7] = dose: 100.0 mg/kg/injection, schedule: Q01DX009 (ip), vehicle: Klucel (hydroxypropylcellulose) (HPC)
[8] = dose: 200.0 mg/kg/injection, schedule: Q01DX009 (ip), vehicle: Klucel (hydroxypropylcellulose) (HPC)
[9] = dose: 12.5 mg/kg/injection, schedule: Q01DX009 (ip), vehicle: saline with Tween-80
[10] = dose: 12.5 mg/kg/injection, schedule: Q01DX009 (ip), vehicle: Klucel (hydroxypropylcellulose) (HPC)
[11] = dose: 25.0 mg/kg/injection, schedule: Q01DX009 (ip), vehicle: Klucel (hydroxypropylcellulose) (HPC)
[12] = dose: 100.0 mg/kg/injection, schedule: Q01DX005 (ip), vehicle: saline with Tween-80
[13] = dose: 200.0 mg/kg/injection, schedule: Q01DX005 (ip), vehicle: saline with Tween-80
[14] = dose: 60.0 mg/kg/injection, schedule: Q01DX005 (ip), vehicle: saline with Tween-80
[15] = dose: 120.0 mg/kg/injection, schedule: Q01DX005 (ip), vehicle: saline with Tween-80

SMILES: O=[N+]([O-])c1ccc(Sc2cccc[n+]2[O-])c2nonc12
- T/C (dose: 1.87 mg/kg/injection, schedule: Q01DX009 (ip), vehicle: Klucel (hydroxypropylcellulose) (HPC)): 107 % of control
- T/C (dose: 3.75 mg/kg/injection, schedule: Q01DX009 (ip), vehicle: Klucel (hydroxypropylcellulose) (HPC)): 99 % of control
- T/C (dose: 7.5 mg/kg/injection, schedule: Q01DX009 (ip), vehicle: Klucel (hydroxypropylcellulose) (HPC)): 101 % of control

SMILES: COc1cccc(-n2cc[n+](C)c2/C=N/O)c1
- T/C [1]: 105 % of control
- T/C [2]: 108 % of control

SMILES: CCOC(=O)C1=Nc2ccccc2N=C(C2C(=O)C=C(C)OC2=O)C1 (configuration not stated)
- T/C (dose: 100.0 mg/kg/injection, schedule: Q01DX001 (ip), vehicle: saline): 108 % of control
- T/C (dose: 200.0 mg/kg/injection, schedule: Q01DX001 (ip), vehicle: saline): 104 % of control
- T/C (dose: 400.0 mg/kg/injection, schedule: Q01DX001 (ip), vehicle: saline): 103 % of control

SMILES: N#CC(=Nc1ccc(F)cc1F)C1=C(O)c2ccccc2C1=O
- T/C (dose: 12.5 mg/kg/injection, schedule: Q01DX005 (ip), vehicle: saline with Tween-80): 97 % of control
- T/C (dose: 25.0 mg/kg/injection, schedule: Q01DX005 (ip), vehicle: saline with Tween-80): 105 % of control
- T/C [3]: 100 % of control

SMILES: COC1=CC[C@H]2[C@H]3Cc4ccc(OC)c5c4[C@@]2(CCN3CC2CC2)C1O5 (some centres not stated)
- T/C (dose: 100.0 mg/kg/injection, schedule: Q04DX002 (ip), vehicle: Klucel (hydroxypropylcellulose) (HPC)): 97 % of control
- T/C (dose: 200.0 mg/kg/injection, schedule: Q04DX002 (ip), vehicle: Klucel (hydroxypropylcellulose) (HPC)): 102 % of control

SMILES: OCC1OC(n2cnc3c(NCc4ccco4)ncnc32)C(O)C1O (configuration not stated)
- T/C [2]: 111 % of control
- T/C [4]: 93 % of control
- T/C [5]: 118 % of control

SMILES: COc1ccccc1N=Cc1ccc(C=Nc2ccccc2OC)cc1
- T/C [6]: 97 % of control
- T/C [7]: 98 % of control
- T/C [8]: 101 % of control and 88 % of control

SMILES: C=C(C)C(O)C(O)c1cc2ccc(=O)oc2cc1OC (configuration not stated)
- T/C [9]: 99 % of control
- T/C [1]: 99 % of control
- T/C [2]: 99 % of control
- T/C [4]: 107 % of control

SMILES: O=S(=O)(Nc1ccc(CCc2ccc(NS(=O)(=O)c3ccccc3)cc2)cc1)c1ccccc1
- T/C (dose: 100.0 mg/kg/injection, schedule: Q01DX001 (ip), vehicle: saline with Tween-80): 95 % of control
- T/C (dose: 200.0 mg/kg/injection, schedule: Q01DX001 (ip), vehicle: saline with Tween-80): 91 % of control
- T/C (dose: 400.0 mg/kg/injection, schedule: Q01DX001 (ip), vehicle: saline with Tween-80): 91 % of control

SMILES: CC(=O)OCN1C(=O)C2C3C=CC(C2C1=O)C1C2C(=O)N(COC(C)=O)C(=O)C2C31 (configuration not stated)
- T/C [1]: 117 % of control
- T/C [2]: 115 % of control
- T/C [5]: 180 % of control
- T/C (dose: 400.0 mg/kg/injection, schedule: Q01DX009 (ip), vehicle: saline with Tween-80): 208 % of control

SMILES: CC(C)CC1NC(=O)C(NC(=O)c2ncccc2O)C(C)OC(=O)C(c2ccccc2)N(C)C(=O)C(C)NC(=O)C(C(C)C(C)C)N(C)C(=O)CN(C)C(=O)C2CC(O)CN2C1=O (configuration not stated) ({Picolinoyl(3-OH)}-TL[Hyp][Sar][X2]A[NMePhg]; ester 1-C; configuration not given here)
- T/C [10]: 95 % of control
- T/C [11]: 94 % of control
- T/C [6]: 93 % of control
- T/C [7]: 95 % of control and 97 % of control
- T/C [8]: 98 % of control and 119 % of control

SMILES: CCS
- T/C [1]: 86 % of control
- T/C [2]: 91 % of control
- T/C [4]: 92 % of control
- T/C [5]: 88 % of control

SMILES: N#CC(Cc1ccccc1)c1ccccc1 (configuration not stated)
- T/C (dose: 25.0 mg/kg/injection, schedule: Q01DX009 (ip), vehicle: distilled water + Tween-80): 95 % of control
- T/C (dose: 50.0 mg/kg/injection, schedule: Q01DX009 (ip), vehicle: distilled water + Tween-80): 110 % of control
- T/C (dose: 100.0 mg/kg/injection, schedule: Q01DX009 (ip), vehicle: distilled water + Tween-80): 93 % of control

SMILES: CC1=C(C(=O)CC(=O)C(=O)Nc2cc(Cl)c(Cl)cc2Cl)Sc2ccccc2N1
- T/C [3]: 101 % of control
- T/C [12]: 102 % of control
- T/C [13]: 98 % of control

SMILES: CCN(CC)CCNc1ccc(N=Nc2cnc3ccccc3c2)c2ccccc12
- T/C [10]: 110 % of control
- T/C (dose: 12.5 mg/kg/injection, schedule: Q04DX003 (ip), vehicle: Klucel (hydroxypropylcellulose) (HPC)): 109 % of control
- T/C [11]: 115 % of control
- T/C (dose: 25.0 mg/kg/injection, schedule: Q04DX003 (ip), vehicle: Klucel (hydroxypropylcellulose) (HPC)): 100 % of control
- T/C [6]: 115 % of control
- T/C (dose: 50.0 mg/kg/injection, schedule: Q04DX003 (ip), vehicle: Klucel (hydroxypropylcellulose) (HPC)): 100 % of control

SMILES: COP(=O)(OC)/C(C)=N/NS(=O)(=O)c1ccc(C)cc1
- T/C (dose: 12.5 mg/kg/injection, schedule: Q01DX009 (ip), vehicle: other): 91 % of control
- T/C (dose: 25.0 mg/kg/injection, schedule: Q01DX009 (ip), vehicle: other): 91 % of control
- T/C (dose: 50.0 mg/kg/injection, schedule: Q01DX009 (ip), vehicle: other): 99 % of control
- T/C (dose: 100.0 mg/kg/injection, schedule: Q01DX009 (ip), vehicle: other): 100 % of control
- T/C (dose: 200.0 mg/kg/injection, schedule: Q01DX009 (ip), vehicle: other): 98 % of control
- T/C (dose: 400.0 mg/kg/injection, schedule: Q01DX009 (ip), vehicle: other): 94 % of control

SMILES: CSc1nc(NC2OC(CO)C(O)C(O)C2O)c(C(=O)CCl)c(=O)n1C (configuration not stated)
- T/C [3]: 93 % of control
- T/C [12]: 91 % of control
- T/C [13]: 90 % of control

SMILES: CCCCCCC1OCN2CCCCC12 (configuration not stated)
- T/C (dose: 50.0 mg/kg/injection, schedule: Q01DX005 (ip), vehicle: saline): 105 % of control
- T/C (dose: 100.0 mg/kg/injection, schedule: Q01DX005 (ip), vehicle: saline): 107 % of control
- T/C (dose: 200.0 mg/kg/injection, schedule: Q01DX005 (ip), vehicle: saline): 109 % of control

SMILES: O=C(O)C1CSC(c2ccccc2)N1 (configuration not stated)
- T/C [9]: 100 % of control and 101 % of control
- T/C [1]: 102 % of control and 103 % of control
- T/C [2]: 100 % of control
- T/C [4]: 100 % of control

SMILES: CCN(CC)CCOc1ccccc1/C=C/c1noc2ccccc12
- T/C (dose: 15.0 mg/kg/injection, schedule: Q01DX005 (ip), vehicle: saline): 94 % of control
- T/C (dose: 30.0 mg/kg/injection, schedule: Q01DX005 (ip), vehicle: saline): 91 % of control
- T/C (dose: 60.0 mg/kg/injection, schedule: Q01DX005 (ip), vehicle: saline): 98 % of control

SMILES: CC1=Nc2nc(=N)nc3cccc(n23)N1
- T/C [14]: 95 % of control
- T/C [15]: 104 % of control

SMILES: CC1=CC(C)C[N+](C)(C)C1 (configuration not stated)
- T/C (dose: 3.12 mg/kg/injection, schedule: Q01DX005 (ip), vehicle: saline): 104 % of control
- T/C (dose: 6.25 mg/kg/injection, schedule: Q01DX005 (ip), vehicle: saline): 103 % of control
- T/C (dose: 12.5 mg/kg/injection, schedule: Q01DX005 (ip), vehicle: saline): 100 % of control
- T/C (dose: 25.0 mg/kg/injection, schedule: Q01DX005 (ip), vehicle: saline): 94 % of control

SMILES: O=C(Nc1cccc(C(=O)Nc2ccc(C3=NCCN3)cc2)c1)c1ccc(C2=NCCN2)cc1
- T/C (dose: 6.25 mg/kg/injection, schedule: Q01DX009 (ip), vehicle: saline): 118 % of control
- T/C (dose: 6.25 mg/kg/injection, schedule: Q04DX003 (ip), vehicle: saline): 100 % of control
- T/C (dose: 12.5 mg/kg/injection, schedule: Q01DX009 (ip), vehicle: saline): 118 % of control
- T/C (dose: 12.5 mg/kg/injection, schedule: Q04DX003 (ip), vehicle: saline): 100 % of control
- T/C (dose: 25.0 mg/kg/injection, schedule: Q04DX003 (ip), vehicle: saline): 100 % of control

SMILES: OCCN1CCN(C2=Nc3cccnc3Nc3cscc32)CC1
- T/C [14]: 101 % of control
- T/C [15]: 111 % of control
- T/C (dose: 240.0 mg/kg/injection, schedule: Q01DX005 (ip), vehicle: saline with Tween-80): 96 % of control

SMILES: CCOC(=O)NC(C)CC(C)NC(=O)OCC (configuration not stated)
- T/C (dose: 50.0 mg/kg/injection, schedule: Q01DX001 (ip), vehicle: Klucel (hydroxypropylcellulose) (HPC)): 94 % of control
- T/C (dose: 100.0 mg/kg/injection, schedule: Q01DX001 (ip), vehicle: Klucel (hydroxypropylcellulose) (HPC)): 92 % of control
- T/C (dose: 200.0 mg/kg/injection, schedule: Q01DX001 (ip), vehicle: Klucel (hydroxypropylcellulose) (HPC)): 93 % of control
